Counter-ions that a name gives are not always drawn.
tested on: Acinetobacter baumannii ATCC17978; assay: Antimicrobial susceptibility testing: 90% growth inhibitory concentration (IC90) determination, Iso-Sensitest broth; assay type: cell-based; conditions: 90% growth inhibitory concentration, Acinetobacter baumannii ATCC17978, Iso-Sensitest broth, OD 600 nm over 16 h; read-out: ATCC17978 IC90
How it was run: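 A. baumannii ATCC17978 grown in Iso-Sensitest broth across 10 compound concentrations at 35±2 °C.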

Structure (SMILES) | IC90 [nM]
Cc1cc(Nc2nccn3c(-c4ccc(OCC#N)c(F)c4F)cnc23)ccc1C(=O)N1CCN(C(=O)C2CNC2)CC1 [Example 504, 2-[4-[8-[4-[4-(azetidine-3-carbonyl)piperazine-1-carbonyl]-3-methylanilino]imidazo[1,2-a]pyrazin-3-yl]-2,3-difluorophenoxy]acetonitrile; formic acid] | 490
CCc1cc(Nc2nccn3c(-c4ccc(OCC#N)c(F)c4F)cnc23)ccc1C(=O)N1CCN(C(=O)[C@@H]2C[C@@H](O)CN2)CC1 [Example 510, 2-[4-[8-[3-ethyl-4-[4-[(2S,4R)-4-hydroxypyrrolidine-2-carbonyl]piperazine-1-carbonyl]annilino]imidazo[1,2-a]pyrazin-3-yl]-2,3-difluorophenoxy]acetonitrile; formic acid] | 550
COc1ccc(-c2cnc3c(Nc4ccc(C(=O)N5CCN(C(=O)[C@H]6CCN6)CC5)c(C)c4)nccn23)cc1F [Example 522, [4-[(2R)-azetidine-2-carbonyl]piperazin-1-yl]-[4-[[3-(3-fluoro-4-methoxyphenyl)imidazo[1,2-a]pyrazin-8-yl]amino]-2-methylphenyl]methanone; hy-drochloride] | 370

same assay, conditions: Acinetobacter baumannii, ATCC17978, 16 h, read-out: ATCC17978 IC90, 90% growth inhibitory concentration, Acinetobacter baumannii ATCC17978, Iso-Sensitest broth, OD 600 nm over 16 h

Structure (SMILES) | IC90 [nM]
Cc1cc(Nc2nccn3c(-c4ccc(OC(F)F)cc4)cnc23)ccc1C(=O)N1CCN(C(=O)[C@@H]2CCNC[C@H]2O)CC1 [Example 503, [4-[[3-[4-(difluoromethoxy)phenyl]imi-dazo[1,2-a]pyrazin-8-yl]amino]-2-methylphenyl]-[4-[(3S,4R)-3-hydroxypiperidine-4-carbonyl]piperazin-1-yl]methanone] | 470
Cc1cc(Nc2nccn3c(-c4ccc(OC(F)F)cc4)cnc23)ccc1C(=O)N1CCN(C(=O)N2CCNCC2CO)CC1 (stereo not shown) [Example 505, [4-[[3-[4-(difluoromethoxy)phenyl]imi-dazo[1,2-a]pyrazin-8-yl]amino]-2-methylphenyl]-[4-[2-(hydroxymethyl)piperazine-1-carbonyl]piperazin-1-yl]methanone] | 500
Cc1cc(Nc2nccn3c(-c4ccc(OC(F)F)cc4)cnc23)ccc1C(=O)N1CCN(C(=O)C2(C)CCNCC2)CC1 [Example 506, [4-[[3-[4-(difluoromethoxy)phenyl]imi-dazo[1,2-a]pyrazin-8-yl]amino]-2-methylphenyl]-[4-(4-methylpiperidine-4-carbonyl)piperazin-1-yl]methanone; hydrochloride] | 510
Cc1cc(Nc2nccn3c(-c4ccc(OC(F)F)cc4)cnc23)ccc1C(=O)N1CCN(C(=O)[C@H]2CCNC[C@@H]2O)CC1 [Example 507, [4-[[3-[4-(difluoromethoxy)phenyl]imi-dazo[1,2-a]pyrazin-8-yl]amino]-2-methylphenyl]-[4-[(3R,4S)-3-hydroxypiperidine-4-carbonyl]piperazin-1-yl]methanone] | 510
Cc1cc(Nc2nccn3c(-c4ccc(OC(F)F)cc4)cnc23)ccc1C(=O)N1CCN(C(=O)[C@H]2CNCCN2)CC1 [Example 508, [4-[[3-[4-(difluoromethoxy)phenyl]imi-dazo[1,2-a]pyrazin-8-yl]amino]-2-methylphenyl]-[4-[(2R)-piperazine-2-carbonyl]piperazin-1-yl]methanone; hydrochloride] | 530
Cc1cc(Nc2nccn3c(-c4ccc(OC(F)F)cc4)cnc23)ccc1C(=O)N1CCN(C(=O)C2(N)CCNCC2)CC1 [Example 509, [4-(4-aminopiperidine-4-carbonyl)piperazin-1-yl]-[4-[[3-[4-(difluoromethoxy)phenyl]imi-dazo[1,2-a]pyrazin-8-yl]amino]-2-methylphenyl]methanone; hy-drochloride] | 540
Cc1cc(Nc2nccn3c(-c4ccc(OC(F)F)cc4)cnc23)ccc1C(=O)N1CCN(C(=O)[C@H]2CCNC[C@H]2O)CC1 [Example 511, [4-[[3-[4-(difluoromethoxy)phenyl]imi-dazo[1,2-a]pyrazin-8-yl]amino]-2-methylphenyl]-[4-[(3S,4S)-3-hydroxypiperidine-4-carbonyl]piperazin-1-yl]methanone] | 560
Cc1cc(Nc2nccn3c(-c4ccc(OC(F)F)cc4)cnc23)ccc1C(=O)N1CCN(C(=O)[C@H]2NCC[C@H]2O)CC1 [Example 512, [4-[[3-[4-(difluoromethoxy)phenyl]imi-dazo[1,2-a]pyrazin-8-yl]amino]-2-methylphenyl]-[4-[(2S,3R)-3-hydroxypyrrolidine-2-carbonyl]piperazin-1-yl]methanone; hydrochloride] | 570
Cc1cc(Nc2nccn3c(-c4ccc(OC(F)F)cc4)cnc23)ccc1C(=O)N1CCN(C(=O)[C@@H](N)CCCN)CC1 [Example 513, (2S)-2,5-diamino-1-[4-[4-[[3-[4-(difluoromethoxy)phenyl]imi-dazo[1,2-a]pyrazin-8-yl]amino]-2-methylbenzoyl]piperazin-1-yl]pentan-1-one; hydrochloride] | 610
COC(=O)C[C@H](N)C(=O)N1CCN(C(=O)c2ccc(Nc3nccn4c(-c5ccc(OC(F)F)cc5)cnc34)cc2C)CC1 [Example 514, methyl (3S)-3-amino-4-[4-[4-[[3-[4-(difluoromethoxy)phenyl]imi-dazo[1,2-a]pyrazin-8-yl]amino]-2-methylbenzoyl]piperazin-1-yl]-4-oxobutanoate; hydrochloride] | 630
COc1ccc(-c2cnc3c(Nc4ccc(C(=O)N5CCN(C(=O)N6CCN[C@H](C(=O)O)C6)CC5)c(C)c4)nccn23)c(F)c1F [Example 515, (2S)-4-[4-[4-[[3-(2,3-difluoro-4-methoxyphenyl)imidazo[1,2-a]pyrazin-8-yl]amino]-2-methylbenzoyl]piperazine-1-carbonyl]piperazine-2-carboxylic acid; formic acid] | 650
Cc1cc(Nc2nccn3c(-c4ccc(OC(F)F)cc4)cnc23)ccc1C(=O)N1CCN(C(=O)[C@@H]2CCNC[C@@H]2O)CC1 [Example 516, [4-[[3-[4-(difluoromethoxy)phenyl]imi-dazo[1,2-a]pyrazin-8-yl]amino]-2-methylphenyl]-[4-[(3R,4R)-3-hydroxypiperidine-4-carbonyl]piperazin-1-yl]methanone] | 650
Cc1cc(Nc2nccn3c(-c4ccc(OC(F)F)cc4)cnc23)ccc1C(=O)N1CCN(C(=O)C2(C#N)CCNCC2)CC1 [Example 517, 4-[4-[4-[[3-[4-(difluoromethoxy)phenyl]imi-dazo[1,2-a]pyrazin-8-yl]amino]-2-methylbenzoyl]piperazine-1-carbonyl]piperidine-4-carbonitrile; hydrochloride] | 660
Cc1cc(Nc2nccn3c(-c4ccc(OC(F)F)cc4)cnc23)ccc1C(=O)N1CCN(C(=O)N2CCNCC2)CC1 [Example 518, [4-[[3-[4-(difluoromethoxy)phenyl]imi-dazo[1,2-a]pyrazin-8-yl]amino]-2-methylphenyl]-[4-(piperazine-1-carbonyl)piperazin-1-yl]methanone; hydrochloride] | 170
Cc1cc(Nc2nccn3c(-c4ccc(OC(F)F)cc4)cnc23)ccc1C(=O)N1CCN(C(=O)CCN)CC1 [Example 519, 3-amino-1-[4-[4-[[3-[4-(difluoromethoxy)phenyl]imi-dazo[1,2-a]pyrazin-8-yl]amino]-2-methylbenzoyl]piperazin-1-yl]propan-1-one; hydrochloride] | 410
Cc1cc(Nc2nccn3c(-c4ccc(OC(F)F)cc4)cnc23)ccc1C(=O)N1CCN(C(=O)NCCN(C)C)CC1 [Example 520, 4-[4-[[3-[4-(difluoromethoxy)phenyl]imi-dazo[1,2-a]pyrazin-8-yl]amino]-2-methylbenzoyl]-N-[2-(dimethylamino)ethyl]pipera-zine-1-carboxamide] | 310
Cc1cc(Nc2nccn3c(-c4ccc(OC(F)F)cc4)cnc23)ccc1C(=O)N1CCN(C(=O)[C@H]2CCN2)CC1 [Example 521, [4-[(2R)-azetidine-2-carbonyl]piperazin-1-yl]-[4-[[3-[4-(difluoromethoxy)phenyl]imi-dazo[1,2-a]pyrazin-8-yl]amino]-2-methylphenyl]methanone; hy-drochloride] | 370
Cc1cc(Nc2nccn3c(-c4ccc(OC(F)F)cc4)cnc23)ccc1C(=O)N1CCN(C(=O)C2CCNCC2O)CC1 (stereo not shown) [Example 523, [4-[[3-[4-(difluoromethoxy)phenyl]imi-dazo[1,2-a]pyrazin-8-yl]amino]-2-methylphenyl]-[4-(3-hydroxypiperidine-4-carbonyl)piperazin-1-yl]methanone; hydrochloride] | 390
CNCCNC(=O)N1CCN(C(=O)c2ccc(Nc3nccn4c(-c5ccc(OC(F)F)cc5)cnc34)cc2C)CC1 [Example 524, 4-[4-[[3-[4-(difluoromethoxy)phenyl]imi-dazo[1,2-a]pyrazin-8-yl]amino]-2-methylbenzoyl]-N-[2-(methylamino)eth-yl]piperazine-1-carboxamide; hydrochloride] | 470
Cc1cc(Nc2nccn3c(-c4ccc(OC(F)F)cc4)cnc23)ccc1C(=O)N1CCN(C(=O)[C@@H](N)CCC(N)=O)CC1 [Example 525, (4S)-4-amino-5-[4-[4-[[3-[4-(difluoromethoxy)phenyl]imi-dazo[1,2-a]pyrazin-8-yl]amino]-2-methylbenzoyl]piperazin-1-yl]-5-oxopentanamide; hydrochlo-ride] | 510
Cc1cc(Nc2nccn3c(-c4ccc(OC(F)F)cc4)cnc23)ccc1C(=O)N1CCN(C(=O)[C@@H](N)CO)CC1 [Example 526, (2S)-2-amino-1-[4-[4-[[3-[4-(difluoromethoxy)phenyl]imi-dazo[1,2-a]pyrazin-8-yl]amino]-2-methylbenzoyl]piperazin-1-yl]-3-hydroxypropan-1-one; hydrochloride] | 560
Cc1cc(Nc2nccn3c(-c4ccc(OC(F)F)cc4)cnc23)ccc1C(=O)N1CCN(C(=O)[C@@H](N)[C@@H](C)O)CC1 [Example 527, (2S,3R)-2-amino-1-[4-[4-[[3-[4-(difluoromethoxy)phenyl]imi-dazo[1,2-a]pyrazin-8-yl]amino]-2-methylbenzoyl]piperazin-1-yl]-3-hydroxybutan-1-one; hydrochloride] | 600
